Experimental data published in patent US20220125983A1, “MALODOR COUNTERACTING COMPOSITION AND AGENT AND THE USE THEREOF” (CHEMCOM S.A., priority 2019, published 2022).

What was measured:
[1] = system: perception of the earthy olfactory note; assay: Sensory test: expert panel rating of odor intensity of earthy compounds without and with nefopam (Tedlar bags); assay type: in vivo, human; details: for Odor intensity without Nefopam, note A: earthy: scale 0 (no odor) to 5 (saturating odor), resolution 0.5, panel of five assessors; for Odor intensity of Geosmin with nefopam enantiomer as blocker, note A: earthy / Odor intensity of Geosmin with nefopam enantiomer as blocker, note B: camphoreous: Geosmin + enantiomer free base
Experimental: The composition comprising nefopam was prepared by diluting racemic nefopam in its free base form in ethanol at a concentration of 107 mg/ml The test comprised in a first step, microinjecting the earthy compound, nefopam or earthy compound+nefopam in 20 L TedlarTM bags specially conceived for gas sampling, previously loaded with a known volume of pure air (from oil free compressor with additional charcoal filters). The earthy compounds were solubilized in ethanol at a suitable concentration (see table 2) and injected in the 20 L […] bag. The final concentration in the bag varied between 7 mg/m^3' to 383 mg/m^3, (table 2), depending on the odor strength of the compound while the concentration of nefopam in the bags was fixed at 54 mg/m^3. [table] The odor presentation device comprised a cylinder filled with clean air. The bag was inserted in the cylinder and connected to a sampling installation in the cylinder by means of a valve. By controlled injection of clean air into the cylinder, the interior pressure was raised and the sampling air was pressed in a controlled manner out of the sample container through the opened valve. This sampling air was transferred to the nose of the corresponding sensory odor panel member by means of a funnel. By this means, each sensory odor panel member received an identical sample with a standardized volume flow and a constant provision time. The outlet flow rate was between 10-20 L/min (in order to avoid any mixing with ambient air before reaching the nose). The expert panel of five assessors entered the room 15 minutes before starting the test. The basic standard test was a rating in intensity and the use of the closest chemical descriptors according to the following order of presentation: 1. earthy compound 2. Mix: earthy compound (at same concentrations as for 1)+Nefopam. Each assessor could smell for few seconds. A pause of minimum 1 minute was considered between presentations. The individual rating was done with a resolution of 0.5 on a scale ranging from 0 (no odor) to 5 (saturating odor). Both enantiomers of nefopam, (+)-nefopam and (-)-nefopam in their free base from obtained as described in examples 1 and 2, respectively, were assessed separately as blockers of the perception of the earthy note of geosmin, using the same procedure as described in example 3.

[2] = system: human nose; details: as low as; cited from earlier work
[3] = earthy compound alone in bag at Table 2 concentration
[4] = earthy compound alone in bag at Table 2 concentration, scale 0 to 5
[5] = Example 4, Geosmin alone, same procedure as example 3, scale 0 to 5
[6] = 2-ethylfenchol 188 mg/m^3 + racemic nefopam free base 54 mg/m^3 in bag, scale 0 to 5
[7] = 2-methylisoborneol 150 mg/m^3 + racemic nefopam free base 54 mg/m^3 in bag, scale 0 to 5
[8] = Ambrinol R 29 mg/m^3 + racemic nefopam free base 54 mg/m^3 in bag, scale 0 to 5
[9] = Ambrinol S 26 mg/m^3 + racemic nefopam free base 54 mg/m^3 in bag, scale 0 to 5
[10] = Ambrinol racemic 25 mg/m^3 + racemic nefopam free base 54 mg/m^3 in bag, scale 0 to 5
[11] = Geosmin 19 mg/m^3 + racemic nefopam free base 54 mg/m^3 in bag, scale 0 to 5
[12] = Huminol 11 mg/m^3 + racemic nefopam free base 54 mg/m^3 in bag, scale 0 to 5
[13] = Methyl geosmin 7 mg/m^3 + racemic nefopam free base 54 mg/m^3 in bag, scale 0 to 5
[14] = Patchouli oil 383 mg/m^3 + racemic nefopam free base 54 mg/m^3 in bag, scale 0 to 5
[15] = earthy compounds of Table 3, nefopam 54 mg/m^3
[16] = Example 4, same procedure as example 3, scale 0 to 5

CC1(C)CCCC2(C)CCCCC12O (centres unmarked) [Methyl Geosmin, 4,4,8a-trimethyl-1,2,3,4,5,6,7,8-octahydronaphthalen-4a-ol]
Odor intensity without Nefopam, note A: earthy [1, 3]: 2.5
Odor intensity without Nefopam, note B: α-pinene [1, 4]: 1.5

CCC1(O)C2(C)CCC(C2)C1(C)C (centres unmarked) [2-ethylfenchol, 6-ethyl-1,5,5-trimethylbicyclo[2.2.1]heptan-6-ol]
Odor intensity without Nefopam, note A: earthy [1, 3]: 3
Odor intensity without Nefopam, note B: camphoreous [1, 4]: 3.5

CC1(C)CCC=C2C[C@@](C)(O)CC[C@H]21 [Ambrinol R, (2S, 4aS)-(−)-2,5,5-Trimethyl-1,2,3,4,4a,5,6,7-octahydro-naphthalen-2-ol]
Odor intensity without Nefopam, note A: earthy [1, 3]: 1
Odor intensity without Nefopam, note B: scatole [1, 4]: 3.5

CC1(O)CC2CCC1(C)C2(C)C (centres unmarked) [2-methylisoborneol, 1,2,7,7-Tetramethylbicyclo[2.2.1]heptan-2-ol]
Odor intensity without Nefopam, note A: earthy [1, 3]: 3
Odor intensity without Nefopam, note B: camphoreous [1, 4]: 0
Detection threshold (human nose) [2]: 25 ng/L

CC1CCCC2(C)CCCCC12O (centres unmarked) [Geosmin, 4,8a-dimethyl-1,2,3,4,5,6,7,8-octahydronaphthalen-4a-ol]
Odor intensity without blocker, note A: earthy [1, 5]: 3
Odor intensity without blocker, note B: camphoreous [1, 5]: 3
Odor intensity without Nefopam, note A: earthy [1, 3]: 3
Odor intensity without Nefopam, note B: camphoreous [1, 4]: 3
Detection threshold (human nose) [2]: 10 ng/L

CCC1(O)C2(C)CCCC1(C)CC2 (centres unmarked) [Huminol, 8-ethyl-1,5-dimethylbicyclo[3.2.1]octan-8-ol]
Odor intensity without Nefopam, note A: earthy [1, 3]: 2.5
Odor intensity without Nefopam, note B: camphoreous [1, 4]: 2.5

CN1CCOC(c2ccccc2)c2ccccc2C1 (racemic) [Nefopam, (RS)-5-methyl-1-phenyl-1,3,4,6-tetrahydro-2,5-benzoxazocine]
Odor intensity with Nefopam, 2-ethylfenchol note A: earthy [1, 6]: 0
Odor intensity with Nefopam, 2-ethylfenchol note B: camphoreous [1, 6]: 3
Odor intensity with Nefopam, 2-methylisoborneol note A: earthy [1, 7]: 0
Odor intensity with Nefopam, 2-methylisoborneol note B: camphoreous [1, 7]: 2.5
Odor intensity with Nefopam, Ambrinol R note A: earthy [1, 8]: 0.5
Odor intensity with Nefopam, Ambrinol R note B: scatole [1, 8]: 3.5
Odor intensity with Nefopam, Ambrinol S note A: earthy [1, 9]: 0.5
Odor intensity with Nefopam, Ambrinol S note B: vetivert [1, 9]: 2
Odor intensity with Nefopam, Ambrinol racemic note A: earthy [1, 10]: 0
Odor intensity with Nefopam, Ambrinol racemic note B: α-pinene [1, 10]: 2.5
Odor intensity with Nefopam, Geosmin note A: earthy [1, 11]: 1
Odor intensity with Nefopam, Geosmin note B: camphoreous [1, 11]: 2.5
Odor intensity with Nefopam, Huminol note A: earthy [1, 12]: 1
Odor intensity with Nefopam, Huminol note B: camphoreous [1, 12]: 2
Odor intensity with Nefopam, Methyl Geosmin note A: earthy [1, 13]: 0.5
Odor intensity with Nefopam, Methyl Geosmin note B: α-pinene [1, 13]: 1.5
Odor intensity with Nefopam, Patchouli Oil note A: earthy [1, 14]: 0.5
Odor intensity with Nefopam, Patchouli Oil note B: α-pinene [1, 14]: 2.5
Intensity of the other olfactory notes associated to the different compounds in the presence of racemic nefopam [1, 15]: not significantly decreased
Typical earthy olfactory note associated with the tested compounds when smelled in the presence of racemic nefopam [1, 15]: strongly reduced

CN1CCO[C@@H](c2ccccc2)c2ccccc2C1 [(+)-Nefopam, (S)-5-methyl-1-phenyl-1,3,4,6-tetrahydro-2,5-benzoxazocine]
Odor intensity of Geosmin with nefopam enantiomer as blocker, note A: earthy [1, 16]: 3
Odor intensity of Geosmin with nefopam enantiomer as blocker, note B: camphoreous [1, 16]: 3

CN1CCO[C@H](c2ccccc2)c2ccccc2C1 [(−)-Nefopam, (R)-5-methyl-1-phenyl-1,3,4,6-tetrahydro-2,5-benzoxazocine]
Odor intensity of Geosmin with nefopam enantiomer as blocker, note A: earthy [1, 16]: 0
Odor intensity of Geosmin with nefopam enantiomer as blocker, note B: camphoreous [1, 16]: 3

CC1(O)CCC2C(=CCCC2(C)C)C1 (racemic) [Ambrinol racemic, 2,5,5-trimethyl-1,3,4,4a,6,7-hexahydronaphthalen-2-ol]
Odor intensity without Nefopam, note A: earthy [1, 3]: 1.5
Odor intensity without Nefopam, note B: α-pinene [1, 4]: 2.5

CC1(C)CCC=C2C[C@](C)(O)CC[C@@H]21 [Ambrinol S, (2R, 4aR)-(+)-2,5,5-Trimethyl-1,2,3,4,4a,5,6,7-octahydro-naphthalen-2-ol]
Odor intensity without Nefopam, note A: earthy [1, 3]: 2.5
Odor intensity without Nefopam, note B: vetivert [1, 4]: 1.5
